One assay deals with PI3Kdelta (Homo sapiens (Human), UniProt O00329). Description: HTRF PI3K biochemical assay, delta isoform. The settings on record: 0.3 nM enzyme, 100 uM ATP, 5 uM PIP2, form screened per table (Neutral or TFA salt). An excerpt: (§1) HTRF PI3K Biochemical Assay to Measure Intrinsic Potency of Compound Inhibitors
(§2) The PI3-Kinase biochemical assays were developed to measure the intrinsic potency and compound dependent inhibition of the alpha, beta, delta, and gamma PI3K isoform enzymes. This assay was developed and further optimized from a kit produced by Upstate (Millipore catalog #33-047) (Millipore Sigma. Billerica Mass., USA) and has been configured for high throughput screening (HTS) and structure-activity relationship (SAR) screening. Briefly, this procedure exploits the exquisite specificity and high affinity binding of enzyme reaction […] phosphatidyl(3,4,5)triphosphate (PIP3) to the GRP1 pleckstrin homology (PH) domain to generate the signal. In the absence of PIP3, an HTRF (Homogeneous Time-Resolved Fluorescence energy transfer) complex is formed consisting of europium (Eu)-labeled anti-GST, GSTtagged GRP1-PH domain, biotin-PIP3 (biotinylated-PIP3) and streptavidin conjugated APC (Allophycocyanin). The native PIP3 produced by PI3-Kinase activity disrupts in a competitive manner the biotin-PIP3 from the pleckstrin homology (PH) domain, resulting in the loss of energy transfer (HTRF complex) and a decrease in the signal. The format of this assay is the same for all 4 isoforms of PI3K; the differences lie in the concentration of enzyme used to achieve robust assay window. The alpha, beta, and delta assays are run at 0.5, 1, and 0.3 nM enzymes and the gamma assay is run at 5 nM enzyme. The ATP concentration is 100 uM in the alpha, beta, and delta assays and 50 uM adenosine triphosphate (ATP) in the gamma assay. All reactions are run at 5 uM PIP2.
(§3) Compounds are serially diluted (3-fold in 100% DMSO) across a 384-well polypropylene source plated from column 3 to column 12 and column 13 to column 22, to yield 10 concentration dose response for each test compound. Columns 1, 2, 23 and 24 contain either only DMSO or pharmacological known control inhibitor. Once titrations are made, 2.5 nL of the compounds on 384 well plates are reformatted and transferred by acoustic dispense in quadruplicates to a 1536 assay plate (Greiner) to assay across all four PI3K isoform enzymes.
(§4) The PI3-Kinase biochemical assay was optimized using the HTRF kit provided by Upstate (Millipore). The assay kit contains six reagents: 1) 4×Reaction Buffer; 2) native PIP2 (substrate); 3) Stop (EDTA); 4) Detection Mix A (Streptavidin-APC); 5) Detection Mix B (Eu-labeled Anti-GST plus GST-tagged PH-domain): 6) Detection Mix C. In addition, the following items were obtained or purchased; PI3Kinase (catalog #'s alpha 14-602, beta 14-603, gamma 14-558 and delta 14-604 from Upstate Biotechnology now EMD Millipore, Mahopac, N.Y., USA), dithiothreitol (Sigma-Aldrich Corp. (St. Louis, Mo., USA) Catalog #D-5545), Adenosine-5′ triphosphate (InVitrogen (Waltham, Mass., USA), Cat#AS001 Å), native PIP3 (PI(3,4,5)P3, diC8, H^+, CELLSIGNALS, INC., (Columbus, Ohio, USA) Cat #907) DMSO ((Sigma-Aldrich Corp. (St. Louis. Mo., USA) Catalog #472301).
(§5) PI3Kinase Reaction Buffer is prepared by dilution the stock 1:4 with de-ionized water. DTT (DL-Dithiothreitol), phosphatidylinositol 4,5-bisphosphate (PIP2) and Biotin-PIP3 were added to 1536 assay plate at a final concentration of 5 mM, […] and 25 nM on the day of use. Enzyme addition and compound pre-incubation are initiated by the addition of 1.25 ul of PI3K (at twice its final concentration) in the 1× reaction buffer to all wells using a BioRaptor™. Plates are incubated at room temperature for 15 minutes. Reactions are initiated by addition of 1.25 ul of 2× substrate solution (PIP2 and ATP in 1× reaction buffer) using BioRaptor™. Plates are incubated in humidified chamber at room temperature for one hour. Reactions are quenched by addition of 0.625 uL of stop solution to all wells using the BioRaptor™. […]

The next assay addresses PI3Kalpha (Homo sapiens (Human), UniProt P42336). Description: HTRF PI3K biochemical assay, alpha isoform (for selectivity ratio). Particulars: ratio PI3K-alpha IC50 value / PI3K-delta IC50 value.
Description: as §1, §2, §3, §4, §5

The structures appear in SMILES notation. Where only a bound is given, the exact number is not on record here.

Chain of PI3Kalpha (P42336 whole entry, canonical isoform): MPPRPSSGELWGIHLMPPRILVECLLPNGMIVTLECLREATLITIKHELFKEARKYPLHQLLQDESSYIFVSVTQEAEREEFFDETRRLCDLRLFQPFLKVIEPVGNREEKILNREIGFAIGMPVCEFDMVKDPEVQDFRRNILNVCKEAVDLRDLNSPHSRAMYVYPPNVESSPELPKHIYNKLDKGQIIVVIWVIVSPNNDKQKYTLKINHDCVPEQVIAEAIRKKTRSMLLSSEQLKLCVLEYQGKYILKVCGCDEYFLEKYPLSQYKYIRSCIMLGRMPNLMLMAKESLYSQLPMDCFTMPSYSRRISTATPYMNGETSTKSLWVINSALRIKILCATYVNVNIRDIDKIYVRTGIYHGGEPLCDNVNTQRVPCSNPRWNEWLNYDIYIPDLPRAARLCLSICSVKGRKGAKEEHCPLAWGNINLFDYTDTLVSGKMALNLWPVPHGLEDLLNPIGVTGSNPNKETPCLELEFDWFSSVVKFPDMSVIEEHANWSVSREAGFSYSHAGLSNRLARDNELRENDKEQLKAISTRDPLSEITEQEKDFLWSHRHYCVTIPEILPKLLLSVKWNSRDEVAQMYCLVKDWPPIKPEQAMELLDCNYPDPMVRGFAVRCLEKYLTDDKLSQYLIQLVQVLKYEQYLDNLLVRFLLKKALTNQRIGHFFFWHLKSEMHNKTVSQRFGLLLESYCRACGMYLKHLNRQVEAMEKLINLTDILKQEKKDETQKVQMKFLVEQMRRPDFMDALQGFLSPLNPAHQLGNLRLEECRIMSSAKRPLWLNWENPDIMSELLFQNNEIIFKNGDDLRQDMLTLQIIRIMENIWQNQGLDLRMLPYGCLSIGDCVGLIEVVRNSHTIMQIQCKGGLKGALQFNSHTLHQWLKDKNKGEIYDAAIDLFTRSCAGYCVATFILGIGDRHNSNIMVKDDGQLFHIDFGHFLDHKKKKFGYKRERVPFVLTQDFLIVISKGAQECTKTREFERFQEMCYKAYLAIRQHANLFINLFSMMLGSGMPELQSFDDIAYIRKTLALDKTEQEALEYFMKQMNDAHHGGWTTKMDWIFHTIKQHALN
Chain of PI3Kalpha (P27986 whole entry partner, canonical isoform): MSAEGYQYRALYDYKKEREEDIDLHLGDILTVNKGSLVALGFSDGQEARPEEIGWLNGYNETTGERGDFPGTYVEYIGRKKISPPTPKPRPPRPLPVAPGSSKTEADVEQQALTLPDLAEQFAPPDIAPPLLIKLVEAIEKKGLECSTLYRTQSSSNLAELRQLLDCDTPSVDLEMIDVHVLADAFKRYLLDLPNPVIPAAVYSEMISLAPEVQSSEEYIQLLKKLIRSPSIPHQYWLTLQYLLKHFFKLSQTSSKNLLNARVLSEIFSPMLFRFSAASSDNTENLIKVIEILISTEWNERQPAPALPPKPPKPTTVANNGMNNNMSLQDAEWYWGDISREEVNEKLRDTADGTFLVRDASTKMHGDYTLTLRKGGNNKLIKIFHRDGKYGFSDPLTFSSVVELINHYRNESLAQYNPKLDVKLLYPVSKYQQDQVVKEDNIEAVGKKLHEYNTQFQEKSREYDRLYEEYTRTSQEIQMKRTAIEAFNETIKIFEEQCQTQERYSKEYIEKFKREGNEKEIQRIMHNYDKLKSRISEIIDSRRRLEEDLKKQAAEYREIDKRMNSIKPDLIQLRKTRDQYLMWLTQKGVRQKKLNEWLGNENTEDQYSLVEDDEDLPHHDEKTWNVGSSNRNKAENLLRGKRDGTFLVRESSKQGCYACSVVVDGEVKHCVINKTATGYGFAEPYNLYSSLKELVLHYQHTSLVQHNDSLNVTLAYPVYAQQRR
Chain of PI3Kdelta (O00329 whole entry, canonical isoform): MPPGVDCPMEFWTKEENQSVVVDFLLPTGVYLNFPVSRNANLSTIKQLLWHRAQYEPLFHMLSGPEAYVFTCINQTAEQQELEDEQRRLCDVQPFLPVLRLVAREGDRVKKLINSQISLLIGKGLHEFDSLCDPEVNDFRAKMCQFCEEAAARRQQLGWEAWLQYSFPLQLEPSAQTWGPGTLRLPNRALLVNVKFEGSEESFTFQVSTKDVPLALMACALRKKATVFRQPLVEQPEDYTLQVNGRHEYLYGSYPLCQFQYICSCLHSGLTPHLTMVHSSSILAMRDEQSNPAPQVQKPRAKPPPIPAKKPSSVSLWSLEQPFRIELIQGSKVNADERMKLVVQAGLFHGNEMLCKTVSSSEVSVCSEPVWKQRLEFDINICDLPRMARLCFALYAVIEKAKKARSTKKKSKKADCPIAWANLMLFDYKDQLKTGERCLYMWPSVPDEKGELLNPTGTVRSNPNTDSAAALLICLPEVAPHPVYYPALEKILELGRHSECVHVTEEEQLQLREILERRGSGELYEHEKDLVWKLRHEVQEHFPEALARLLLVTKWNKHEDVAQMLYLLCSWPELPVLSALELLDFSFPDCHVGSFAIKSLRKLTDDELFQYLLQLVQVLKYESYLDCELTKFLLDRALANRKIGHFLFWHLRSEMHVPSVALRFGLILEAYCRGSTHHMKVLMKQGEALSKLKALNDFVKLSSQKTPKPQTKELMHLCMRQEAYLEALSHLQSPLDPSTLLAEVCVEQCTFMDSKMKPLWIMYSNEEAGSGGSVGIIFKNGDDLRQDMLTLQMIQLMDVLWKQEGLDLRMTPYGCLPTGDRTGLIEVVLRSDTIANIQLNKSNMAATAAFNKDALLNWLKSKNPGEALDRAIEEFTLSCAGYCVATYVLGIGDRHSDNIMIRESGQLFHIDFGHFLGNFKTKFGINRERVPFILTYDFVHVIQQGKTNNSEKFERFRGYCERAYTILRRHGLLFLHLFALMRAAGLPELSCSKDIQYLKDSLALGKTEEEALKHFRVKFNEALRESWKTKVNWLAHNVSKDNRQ
Chain of PI3Kdelta (P27986 whole entry partner, canonical isoform): as the sequence (P27986 whole entry partner, canonical isoform) above

Take `Cn1cc(-c2nc(N3CCC4(CCC(=O)N4CC4CC(F)(F)C4)CC3)cnc2C#N)cn1` [Compound 1-20, 5-{1-[(3,3-difluorocyclobutyl)methyl]-2-oxo-1,8-diazaspiro[4.5]dec-8-yl}-3-(1-methyl-1H-pyrazol-4-yl)pyrazine-2-carbonitrile]: the 50% inhibitory concentration (IC50) at PI3Kdelta stood at 18 nM. In addition, the “Selectivity versus PI3Kalpha” value on PI3Kalpha is more than 10.
As to `Cn1cc(-c2nc(N3CCC4(CCC(=O)N4CC(F)(F)F)CC3)cnc2C#N)cn1` [Compound 1-21, 3-(1-methyl-1H-pyrazol-4-yl)-5-[2-oxo-1-(2,2,2-trifluoroethyl)-1,8-diazaspiro[4.5]dec-8-yl]pyrazine-2-carbonitrile], the half-maximal inhibitory concentration (IC50) at PI3Kdelta amounted to 37 nM. Besides, the “Selectivity versus PI3Kalpha” value on PI3Kalpha was more than 10.
For the molecule `CCCN1C(=O)OCC12CCN(c1cnc(C#N)c(-c3cnn(C)c3)n1)CC2` [Compound 1-22, 3-(1-methyl-1H-pyrazol-4-yl)-5-(2-oxo-1-propyl-3-oxa-1,8-diazaspiro[4.5]dec-8-yl)pyrazine-2-carbonitrile], the IC50 at PI3Kdelta was 30 nM. At PI3Kalpha, the “Selectivity versus PI3Kalpha” value is more than 10.
`Cn1cc(-c2nc(N3CCC4(CC3)COC(=O)N4CC3CCC3)cnc2C#N)cn1` [Compound 1-23, 5-[1-(cyclobutylmethyl)-2-oxo-3-oxa-1,8-diazaspiro[4.5]dec-8-yl]-3-(1-methyl-1H-pyrazol-4-yl)pyrazine-2-carbonitrile]: the IC50 on PI3Kdelta turned out to be 18 nM. In addition, at PI3Kalpha, the “Selectivity versus PI3Kalpha” value is recorded as more than 10.
On to `Cn1cc(-c2nc(N3CCC4(CC3)COCC(=O)N4CC3CC3)cnc2C#N)cn1` [Compound 1-24, 5-[1-(cyclopropylmethyl)-2-oxo-4-oxa-1,9-diazaspiro[5.5]undec-9-yl]-3-(1-methyl-1H-pyrazol-4-yl)pyrazine-2-carbonitrile], for which the IC50 on PI3Kdelta came to 10 nM. The “Selectivity versus PI3Kalpha” value at PI3Kalpha was more than 10.
On to `Cn1cc(-c2nc(N3CCC(C)(N4CCOCC4)CC3)cnc2C#N)cn1` [Compound 1-25, 5-(4-methyl-4-morpholin-4-ylpiperidin-1-yl)-3-(1-methyl-1H-pyrazol-4-yl)pyrazine-2-carbonitrile], for which, on PI3Kdelta, the IC50 is 52 nM. Besides, at PI3Kalpha, the “Selectivity versus PI3Kalpha” value is listed as more than 10.
As to `Cn1cc(-c2nc(N3CCC(C)(N4CCCCC4)CC3)cnc2C#N)cn1` [Compound 1-26, 5-(4′-methyl-1,4′-bipiperidin-1′-yl)-3-(1-methyl-1H-pyrazol-4-yl)pyrazine-2-carbonitrile], the IC50 on PI3Kdelta worked out at 70 nM. In addition, the “Selectivity versus PI3Kalpha” value at PI3Kalpha was more than 10.
Taken in the same sequence, the figures for `CO[C@H]1C[C@@H](C(=O)N2CCN(c3cnc(C#N)c(-c4cnn(C)c4)n3)C[C@H]2C)C1` [Compound 1-27, 5-{(3R)-4-[(cis-3-methoxycyclobutyl)carbonyl]-3-methylpiperazin-1-yl}-3-(1-methyl-1H-pyrazol-4-yl)pyrazine-2-carbonitrile] were 100 nM and more than 10.
`C[C@@H]1CN(c2cnc(C#N)c(-c3cnn(C)c3)n2)CCN1C(=O)C1CC(F)(F)C1` [Compound 1-28, 5-{(3R)-4-[(3,3-difluorocyclobutyl)carbonyl]-3-methylpiperazin-1-yl}-3-(1-methyl-1H-pyrazol-4-yl)pyrazine-2-carbonitrile]: the IC50 on PI3Kdelta was 100 nM. At PI3Kalpha, the “Selectivity versus PI3Kalpha” value is listed as more than 10.
As for `C[C@@H]1CN(c2cnc(C#N)c(-c3cnn(C)c3)n2)CCN1C(=O)[C@@H]1C[C@@H]1F` [Compound 1-29, 5-[(3R)-4-{[(1S,2S)-2-fluorocyclopropyl]carbonyl}-3-methylpiperazin-1-yl]-3-(1-methyl-1H-pyrazol-4-yl)pyrazine-2-carbonitrile], the IC50 on PI3Kdelta was 29 nM. For the same molecule, the “Selectivity versus PI3Kalpha” value on PI3Kalpha is given as more than 10.
Take `CCC(=O)N1CCN(c2cnc(C#N)c(-c3cnn(C)c3)n2)C[C@H]1C` [Compound 1-30, 5-[(3R)-3-methyl-4-propanoylpiperazin-1-yl]-3-(1-methyl-1H-pyrazol-4-yl)pyrazine-2-carbonitrile]: the 50% inhibitory concentration (IC50) at PI3Kdelta was 150 nM. Besides, the “Selectivity versus PI3Kalpha” value on PI3Kalpha is recorded as more than 10.
The corresponding values for `C[C@@H]1CN(c2cnc(C#N)c(-c3cnn(C)c3)n2)CCN1C(=O)C1(C)CC1` [Compound 1-31, 5-{(3R)-3-methyl-4-[(1-methylcyclopropyl)carbonyl]piperazin-1-yl}-3-(1-methyl-1H-pyrazol-4-yl)pyrazine-2-carbonitrile] are 280 nM and more than 10.
Consider `C[C@@H]1CN(c2cnc(C#N)c(-c3cnn(C)c3)n2)CCN1C(=O)N1CCCC1` [Compound 1-32, 3-(1-methyl-1H-pyrazol-4-yl)-5-[(3R)-3-methyl-4-(pyrrolidin-1-ylcarbonyl)piperazin-1-yl]pyrazine-2-carbonitrile], for which the IC50 at PI3Kdelta worked out at 180 nM. Also, the “Selectivity versus PI3Kalpha” value on PI3Kalpha is on record as more than 10.
As for `C[C@@H]1CN(c2cnc(C#N)c(-c3cnn(C)c3)n2)CCN1C(=O)N1CC2(COC2)C1` [Compound 1-33, 5-[(3R)-3-methyl-4-(2-oxa-6-azaspiro[3.3]hept-6-ylcarbonyl)piperazin-1-yl]-3-(1-methyl-1H-pyrazol-4-yl)pyrazine-2-carbonitrile], at PI3Kdelta, the concentration for half-maximal inhibition (IC50) amounted to 300 nM. For the same molecule, the “Selectivity versus PI3Kalpha” value at PI3Kalpha was more than 10.
As to `C[C@@H]1CN(c2cnc(C#N)c(-c3cnn(C)c3)n2)CCN1C(=O)NCC1CC1` [Compound 1-34, (2R)-4-[5-cyano-6-(1-methyl-1H-pyrazol-4-yl)pyrazin-2-yl]-N-(cyclopropylmethyl)-2-methylpiperazine-1-carboxamide], the IC50 at PI3Kdelta came to 210 nM. Besides, the “Selectivity versus PI3Kalpha” value on PI3Kalpha is more than 10.
With `CO[C@H]1CCN(C(=O)N2CCN(c3cnc(C#N)c(-c4cnn(C)c4)n3)C[C@H]2C)C1` [Compound 1-35, 5-[(3R)-4-{[(3S)-3-methoxypyrrolidin-1-yl]carbonyl}-3-methylpiperazin-1-yl]-3-(1-methyl-1H-pyrazol-4-yl)pyrazine-2-carbonitrile], at PI3Kdelta, the IC50 was determined as 110 nM. For the same molecule, at PI3Kalpha, the “Selectivity versus PI3Kalpha” value is on record as more than 10.
In the case of `COC1CN(C(=O)N2CCN(c3cnc(C#N)c(-c4cnn(C)c4)n3)C[C@H]2C)C1` [Compound 1-36, 5-{(3R)-4-[(3-methoxyazetidin-1-yl)carbonyl]-3-methylpiperazin-1-yl}-3-(1-methyl-1H-pyrazol-4-yl)pyrazine-2-carbonitrile], on PI3Kdelta, the half-maximal inhibitory concentration (IC50) worked out at 160 nM. The “Selectivity versus PI3Kalpha” value on PI3Kalpha is more than 10.
The corresponding values for `C[C@@H]1CN(c2cnc(C#N)c(-c3cnn(C)c3)n2)CCN1C(=O)N1CCC1` [Compound 1-37, 5-[(3R)-4-(azetidin-1-ylcarbonyl)-3-methylpiperazin-1-yl]-3-(1-methyl-1H-pyrazol-4-yl)pyrazine-2-carbonitrile] are 53 nM and more than 10.
`COC(=O)N1CCN(c2cnc(C#N)c(-c3cnn(C)c3)n2)C[C@H]1C` [Compound 1-38, methyl (2R)-4-[5-cyano-6-(1-methyl-1H-pyrazol-4-yl)pyrazin-2-yl]-2-methylpiperazine-1-carboxylate]: the half-maximal inhibitory concentration (IC50) at PI3Kdelta stood at 210 nM. The “Selectivity versus PI3Kalpha” value on PI3Kalpha is recorded as more than 10.
Take `C[C@@H]1C[C@H]1C(=O)N1CCN(c2cnc(C#N)c(-c3cn[nH]c3)n2)C[C@H]1C` [Compound 1-39, 5-[(3R)-3-methyl-4-{[(1R,2R)-2-methylcyclopropyl]carbonyl}piperazin-1-yl]-3-(1H-pyrazol-4-yl)pyrazine-2-carbonitrile]: the IC50 on PI3Kdelta amounted to 50 nM. The “Selectivity versus PI3Kalpha” value on PI3Kalpha is on record as more than 10.

(Values after patent US11179389B2, “Purine inhibitors of human phosphatidylinositol 3-kinase delta” (Merck Sharp & Dohme Corp., priority 2017, dated 2021).)
